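Dose response: 5 concentrations. Exposure: 48 h. Format: 96-well plates. Endpoint: linear interpolation; highest concentration if not reached. Here, GI50 denotes the concentration required for 50% inhibition of growth.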 Active and inactive are the calls of the source. No stated cut-off is given here; in the data, active = GI50 up to about 1.1 µM and inactive = higher.
How the values were obtained:
Test in all cases: NCI-60 cell line screen, 48 h
ACHN = tested on: ACHN
CAKI-1 = tested on: CAKI-1
HOP-92 = tested on: HOP-92
K562 = tested on: K562
M14 = tested on: M14
Malme-3M = tested on: Malme-3M
NCI-H522 = tested on: NCI-H522
OVCAR-3 = tested on: OVCAR-3
RPMI-8226 = tested on: RPMI-8226
SF-268 = tested on: SF-268
SF-295 = tested on: SF-295
SK-MEL-2 = tested on: SK-MEL-2
SK-MEL-5 = tested on: SK-MEL-5
SK-OV-3 = tested on: SK-OV-3
SN12C = tested on: SN12C
SNB-75 = tested on: SNB-75
UACC-257 = tested on: UACC-257
UACC-62 = tested on: UACC-62
MDA-MB-231 = tested on: MDA-MB-231
T47D = tested on: T47D

Measured: GI50

OC(c1ccccc1)(c1ccccc1)c1ccncc1
inactive: ACHN > 100 µM | CAKI-1 > 100 µM | HOP-92 74 µM | K562 > 100 µM | M14 > 100 µM | Malme-3M > 100 µM | NCI-H522 > 100 µM | OVCAR-3 > 100 µM | RPMI-8226 > 100 µM | SF-268 > 100 µM | SF-295 > 100 µM | SK-MEL-2 > 100 µM | SK-MEL-5 > 100 µM | SK-OV-3 > 100 µM | SN12C > 100 µM | SNB-75 36.6 µM | UACC-257 > 100 µM | UACC-62 > 100 µM

COc1ccc2oc(=O)c(-c3csc(C)n3)cc2c1
inactive: ACHN 44.4 µM | CAKI-1 > 100 µM | HOP-92 19.5 µM | K562 > 100 µM | M14 75.2 µM | MDA-MB-231 24.7 µM | RPMI-8226 > 100 µM | SF-268 21.6 µM | SF-295 18.6 µM | SK-MEL-2 41.4 µM | SK-MEL-5 > 100 µM | SK-OV-3 28.1 µM | SN12C > 100 µM | SNB-75 30.5 µM | UACC-257 > 100 µM | UACC-62 22.9 µM

CCOC(=O)CCC(C(=O)OCC)n1nc2ccc(Nc3c(C)[n+]([O-])c4cc(F)c(OCC)cc4[n+]3[O-])cc2n1 (stereo not drawn)
inactive: ACHN 40.2 µM | CAKI-1 > 100 µM | HOP-92 21.4 µM | K562 > 100 µM | M14 > 100 µM | Malme-3M > 100 µM | NCI-H522 30.8 µM | OVCAR-3 > 100 µM | RPMI-8226 > 100 µM | SF-268 14 µM | SF-295 36.1 µM | SK-MEL-2 50.2 µM | SK-MEL-5 82.8 µM | SK-OV-3 31.9 µM | SN12C 91.2 µM | SNB-75 15.8 µM | T47D 66.1 µM | UACC-257 > 100 µM | UACC-62 36.3 µM

CC(=O)/N=C1\C=C(NC(C)=O)C(=O)c2ccccc21
inactive: ACHN 1.45 µM | CAKI-1 1.95 µM | HOP-92 1.45 µM | K562 2.04 µM | M14 1.73 µM | Malme-3M 1.93 µM | NCI-H522 1.33 µM | OVCAR-3 2.01 µM | RPMI-8226 1.39 µM | SF-268 3.18 µM | SF-295 3.68 µM | SK-MEL-2 3.09 µM | SK-MEL-5 1.64 µM | SK-OV-3 6.79 µM | SN12C 1.78 µM | SNB-75 2.54 µM | T47D 1.48 µM | UACC-257 1.81 µM | UACC-62 2.35 µM

CCOP(=O)(OCC)/C(C#N)=C/c1ccc[nH]1
inactive: ACHN > 100 µM | CAKI-1 > 100 µM | HOP-92 > 100 µM | K562 > 100 µM | M14 > 100 µM | Malme-3M > 100 µM | NCI-H522 > 100 µM | OVCAR-3 > 100 µM | RPMI-8226 > 100 µM | SF-268 > 100 µM | SF-295 > 100 µM | SK-MEL-2 > 100 µM | SK-MEL-5 > 100 µM | SK-OV-3 > 100 µM | SN12C > 100 µM | SNB-75 55.7 µM | UACC-257 > 100 µM | UACC-62 > 100 µM

Cc1ccc(SC2C(C)(C)N(C(C)C)P2(=O)N(C(C)C)C(C)C)cc1 (stereo not drawn)
inactive: ACHN 15.8 µM | CAKI-1 47 µM | HOP-92 5.58 µM | K562 17.7 µM | M14 71.4 µM | Malme-3M > 32.3 µM | NCI-H522 20.5 µM | OVCAR-3 55.5 µM | RPMI-8226 9.35 µM | SF-268 52 µM | SF-295 70.8 µM | SK-MEL-2 67 µM | SK-MEL-5 22.4 µM | SK-OV-3 > 100 µM | SN12C 38.6 µM | SNB-75 > 100 µM | UACC-257 16.9 µM | UACC-62 42.1 µM

CC(=O)ON(C(C)=O)C1C(COC(c2ccccc2)(c2ccccc2)c2ccccc2)OC2OC3(CCCC3)OC21 (stereo not drawn)
inactive: ACHN 7.66 µM | CAKI-1 > 100 µM | HOP-92 2.42 µM | K562 4.27 µM | M14 7.18 µM | Malme-3M > 89.7 µM | NCI-H522 2.46 µM | OVCAR-3 5.37 µM | RPMI-8226 2.42 µM | SF-268 10.5 µM | SF-295 6 µM | SK-MEL-2 27.2 µM | SK-MEL-5 6.3 µM | SK-OV-3 5.53 µM | SN12C 5.13 µM | SNB-75 21.2 µM | UACC-257 11.6 µM | UACC-62 > 42 µM

CN(c1c(Cl)cccc1Cl)S(=O)(=O)c1ccccc1[N+](=O)[O-]
inactive: ACHN > 100 µM | CAKI-1 > 100 µM | M14 > 100 µM | Malme-3M > 100 µM | NCI-H522 > 100 µM | OVCAR-3 > 100 µM | RPMI-8226 > 100 µM | SF-268 > 100 µM | SF-295 > 100 µM | SK-MEL-2 > 100 µM | SK-OV-3 > 100 µM | SN12C > 100 µM | SNB-75 > 100 µM | T47D > 100 µM | UACC-257 > 100 µM | UACC-62 > 100 µM

COc1ccc(C)cc(O)c1=O
inactive: ACHN 22.8 µM | CAKI-1 28.2 µM | HOP-92 26.2 µM | K562 45.4 µM | M14 21.2 µM | Malme-3M 57.1 µM | NCI-H522 30.4 µM | OVCAR-3 31.6 µM | RPMI-8226 39.6 µM | SF-268 28.6 µM | SF-295 27.9 µM | SK-MEL-2 94.8 µM | SK-MEL-5 67.8 µM | SK-OV-3 > 100 µM | SN12C 38.5 µM | SNB-75 > 100 µM | UACC-257 33.2 µM | UACC-62 22.3 µM

N#Cc1ccc(Sc2ccccc2)cc1C#N
inactive: ACHN > 100 µM | CAKI-1 > 100 µM | HOP-92 30.1 µM | K562 45.8 µM | M14 > 100 µM | Malme-3M > 100 µM | NCI-H522 31.7 µM | OVCAR-3 > 100 µM | RPMI-8226 28.1 µM | SF-268 22.6 µM | SF-295 39.9 µM | SK-MEL-2 > 100 µM | SK-MEL-5 > 100 µM | SK-OV-3 54 µM | SN12C 60.3 µM | SNB-75 21.7 µM | UACC-257 > 100 µM | UACC-62 > 100 µM

COc1cc2ccnc3c(=C(SC)SC)c(=O)c(c1OC)c23
inactive: ACHN 12.9 µM | CAKI-1 10.3 µM | HOP-92 5.64 µM | K562 3.29 µM | M14 13.9 µM | Malme-3M 11.4 µM | NCI-H522 1.56 µM | OVCAR-3 14.9 µM | RPMI-8226 3.29 µM | SF-268 22.2 µM | SF-295 58.1 µM | SK-MEL-2 16.2 µM | SK-MEL-5 > 10 µM | SK-OV-3 > 100 µM | SN12C 15.2 µM | SNB-75 10.2 µM | UACC-257 13.6 µM | UACC-62 17.8 µM

CCC(C)C(NC(=O)c1c2ccccc2nc2ccccc12)C(=O)O (stereo not drawn)
inactive: ACHN > 100 µM | CAKI-1 > 100 µM | HOP-92 > 100 µM | K562 > 100 µM | M14 > 100 µM | MDA-MB-231 > 100 µM | Malme-3M 51.2 µM | NCI-H522 > 100 µM | OVCAR-3 > 100 µM | RPMI-8226 > 100 µM | SF-268 > 100 µM | SF-295 > 100 µM | SK-MEL-2 > 100 µM | SK-MEL-5 60 µM | SK-OV-3 > 100 µM | SN12C > 100 µM | SNB-75 > 100 µM | UACC-257 > 100 µM | UACC-62 > 100 µM

O=C1OC(CC(=O)c2ccc(Cl)cc2Cl)C(Cl)=C1Cl (stereo not drawn)
inactive: ACHN > 41.1 µM | CAKI-1 30.8 µM | HOP-92 18.9 µM | K562 29.1 µM | M14 27.2 µM | Malme-3M 19.7 µM | NCI-H522 17.6 µM | OVCAR-3 33.8 µM | RPMI-8226 26.9 µM | SF-268 25.2 µM | SF-295 > 100 µM | SK-MEL-2 19.8 µM | SK-MEL-5 45.6 µM | SK-OV-3 > 36.1 µM | SN12C 18.9 µM | SNB-75 > 43.7 µM | UACC-257 > 100 µM | UACC-62 17 µM

Cc1n[n+](Cc2ccccc2)c2sc(N)nn12
inactive: ACHN > 100 µM | CAKI-1 > 100 µM | K562 76.7 µM | M14 > 100 µM | Malme-3M > 100 µM | NCI-H522 30 µM | OVCAR-3 > 100 µM | RPMI-8226 > 100 µM | SF-268 35.3 µM | SF-295 > 100 µM | SK-MEL-2 > 100 µM | SK-MEL-5 39.4 µM | SK-OV-3 85.9 µM | SN12C > 100 µM | SNB-75 > 100 µM | T47D > 100 µM | UACC-257 > 100 µM | UACC-62 10.2 µM

Cc1ccc(S(N)(=O)=O)cc1 [P-TOLUENESULFONAMIDE]
inactive: ACHN > 1000 µM | HOP-92 558 µM | K562 > 1000 µM | M14 > 1000 µM | Malme-3M > 1000 µM | NCI-H522 > 1000 µM | OVCAR-3 > 1000 µM | RPMI-8226 > 1000 µM | SF-268 > 1000 µM | SF-295 > 1000 µM | SK-MEL-2 > 1000 µM | SK-MEL-5 > 1000 µM | SK-OV-3 > 1000 µM | SN12C > 1000 µM | T47D > 1000 µM | UACC-257 > 1000 µM | UACC-62 > 1000 µM

— ChEMBL document CHEMBL1201862, “PubChem BioAssay data set” (2004)
